Broadly, the solubility is the concentration that dissolves in the medium under given conditions.

Consider two compounds from US8846024B2, “3′-[(2Z)-[1-(3,4-dimethylphenyl)-1,5-dihydro-3-methyl-5-oxo-4H-pyrazol-4-ylidene]hydrazino]-2′-hydroxy-[1,1′-biphenyl]-3-carboxylic acid bis-(monoethanolamine)” (GlaxoSmithKline LLC, priority 2002, dated 2014).

Data set [1] in a line: Solubility of the free acid in water (stated in description). The class given is physicochemical. The note with it: stated as approximate in the description.
Data set [2] is described as follows: Relative solubilities in water, 0.1% HCl and methanol. Format: physicochemical. The settings on record: 25 °C, 25 deg. The method, then: The solubility of 3′-[(2Z)-[1-(3,4-dimethylphenyl)-1,5-dihydro-3-methyl-5-oxo-4H-pyrazol-4-ylidene]hydrazino]-2′-hydroxy-[1,1′-biphenyl]-3-carboxylic acid as the free acid (Compound A) and as the bis-(monoethanolamine) salt (Compound B) was determined in three different systems: water, 0.1 HCl and methanol.

The mark [3] stands for this setting: organic solvent or mixture, solvent methanol, read-out: Solubility at 25 deg, methanol.
Where [4] appears, read: simulated gastric fluid, solvent 0.1% HCl, read-out: Solubility at 25 deg, 0.1% HCl.
The mark [5] stands for this setting: solvent water, read-out: Solubility at 25 deg, Water.

Values after ≈ are worked out from the molar mass of the structure shown. Like-named read-outs stand apart in the source and are kept apart here.

As to `CC1=NN(c2ccc(C)c(C)c2)C(=O)/C1=N\Nc1cccc(-c2cccc(C(=O)O)c2)c1O` [Compound A, 3′-[(2Z)-[1-(3,4-dimethylphenyl)-1,5-dihydro-3-methyl-5-oxo-4H-pyrazol-4-ylidene]hydrazino]-2′-hydroxy-[1,1′-biphenyl]-3-carboxylic acid], the solubility in water result in data set [1] was “approximately 5 micrograms per milliliter”. Besides, the solubility in data set [2] (setting [3]) is 1900 µg/mL (≈ 4290 µM); in data set [2] (setting [4]) it was under 1 µg/mL; in data set [2] (setting [5]), under 1 µg/mL.
On to `CC1=NN(c2ccc(C)c(C)c2)C(=O)/C1=N\Nc1cccc(-c2cccc(C(=O)O)c2)c1O.NCCO.NCCO` [Compound B, 3′-[(2Z)-[1-(3,4-dimethylphenyl)-1,5-dihydro-3-methyl-5-oxo-4H-pyrazol-4-ylidene]hydrazino]-2′-hydroxy-[1,1′-biphenyl]-3-carboxylic acid bis-(monoethanolamine)], for which the solubility in data set [2] (setting [3]) was 6400 µg/mL; in data set [2] (setting [4]) it was under 1 µg/mL; in data set [2] (setting [5]) it was 14200 µg/mL.
